# Results: BigSolDB 2.1
structure (smiles),measurement,setting,value
c1ccc2c(c1)sc1ccccc12,solubility (mole fraction),"in acetonitrile, 278.15 K",0.00126
same,solubility (mole fraction),"in acetonitrile, 283.15 K",0.00163
same,solubility (mole fraction),"in acetonitrile, 288.65 K",0.00192
same,solubility (mole fraction),"in acetonitrile, 293.15 K",0.00242
same,solubility (mole fraction),"in acetonitrile, 298.15 K",0.0029
same,solubility (mole fraction),"in acetonitrile, 303.15 K",0.00331
same,solubility (mole fraction),"in acetonitrile, 308.15 K",0.00406
same,solubility (mole fraction),"in acetonitrile, 313.15 K",0.00478
same,solubility (mole fraction),"in acetonitrile, 318.15 K",0.0056
same,solubility (mole fraction),"in acetonitrile, 323.15 K",0.00668
same,solubility (mole fraction),"in acetonitrile, 328.15 K",0.00782
same,solubility (mole fraction),"in acetonitrile, 333.15 K",0.00917
same,solubility (mole fraction),"in methanol, 278.15 K",0.00454
same,solubility (mole fraction),"in methanol, 283.15 K",0.00611
same,solubility (mole fraction),"in methanol, 288.65 K",0.00845
same,solubility (mole fraction),"in methanol, 293.15 K",0.0118
same,solubility (mole fraction),"in methanol, 298.15 K",0.0152
same,solubility (mole fraction),"in methanol, 303.15 K",0.0189
same,solubility (mole fraction),"in methanol, 308.15 K",0.0241
same,solubility (mole fraction),"in methanol, 313.15 K",0.0321
same,solubility (mole fraction),"in methanol, 318.15 K",0.0402
same,solubility (mole fraction),"in methanol, 323.15 K",0.0506
same,solubility (mole fraction),"in methanol, 328.15 K",0.0639
same,solubility (mole fraction),"in methanol, 333.15 K",0.0839
